Measurements: ChEMBL document CHEMBL1909046, “DrugMatrix in vitro pharmacology data”

How the values were obtained:
[1] = biological target: T1, Alpha-1A adrenergic receptor (Rattus norvegicus, UniProt P43140); experiment: DRUGMATRIX: Alpha-1A adrenergic receptor radioligand binding (ligand: prazosin); format: cell membranes, Wistar, Submaxillary gland, Membrane; conditions: Not Active = under 50% inhibition at 10 µM
T1 sequence (P43140 whole entry): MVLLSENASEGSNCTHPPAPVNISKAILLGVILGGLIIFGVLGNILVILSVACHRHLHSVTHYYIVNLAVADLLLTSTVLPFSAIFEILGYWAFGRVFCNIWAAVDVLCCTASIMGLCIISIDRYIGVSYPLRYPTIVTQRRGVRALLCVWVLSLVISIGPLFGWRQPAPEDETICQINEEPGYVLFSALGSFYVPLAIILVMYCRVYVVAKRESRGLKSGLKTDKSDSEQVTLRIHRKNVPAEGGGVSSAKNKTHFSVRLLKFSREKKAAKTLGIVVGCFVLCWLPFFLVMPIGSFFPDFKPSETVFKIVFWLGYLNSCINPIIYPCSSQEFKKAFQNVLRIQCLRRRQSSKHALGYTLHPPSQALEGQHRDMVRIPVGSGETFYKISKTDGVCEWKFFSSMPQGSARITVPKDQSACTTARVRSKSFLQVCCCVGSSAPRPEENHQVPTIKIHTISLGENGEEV

[2] = biological target: Beta-2 adrenergic receptor (Homo sapiens, UniProt P07550); experiment: DRUGMATRIX: Adrenergic beta2 radioligand binding (ligand: [3H] CGP-12177); format: cell membranes, Membrane; conditions: cho; Not Active = under 50% inhibition at 10 µM
[3] = biological target: Aldo-keto reductase family 1 member B1 (Rattus norvegicus, UniProt P07943); experiment: biochemical; format: tissue-based, Lens of camera-type eye;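 note: inhibition of aldose reductase enzyme activity, measured with DL-glyceraldehyde as the substrate; in other assays of this panel Not Active means under 50% inhibition at 10 µM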
[4] = biological target: T2, C-X-C chemokine receptor type 1 (Homo sapiens, UniProt P25024); note: in other assays of this panel Not Active means under 50% inhibition at 10 µM
T2 sequence (P25024 whole entry): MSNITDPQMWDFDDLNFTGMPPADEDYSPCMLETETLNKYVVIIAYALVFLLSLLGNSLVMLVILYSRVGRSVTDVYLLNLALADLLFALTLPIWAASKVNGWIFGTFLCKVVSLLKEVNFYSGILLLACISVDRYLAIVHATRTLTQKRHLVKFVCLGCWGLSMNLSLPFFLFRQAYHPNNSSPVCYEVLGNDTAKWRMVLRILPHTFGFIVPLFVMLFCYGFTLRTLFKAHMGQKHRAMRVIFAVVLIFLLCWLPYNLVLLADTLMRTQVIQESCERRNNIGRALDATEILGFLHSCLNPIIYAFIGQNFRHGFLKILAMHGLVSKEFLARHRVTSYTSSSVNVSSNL

[5] = DRUGMATRIX: Glutamate, NMDA, Agonism radioligand binding (ligand: [3H] CGP-39653); format: cell membranes, Rattus norvegicus, Wistar, Cerebral cortex, Membrane; conditions: Not Active = under 50% inhibition at 10 µM
Histamine H2 receptor = Histamine H2 receptor (Homo sapiens, UniProt P25021); format: cell membranes, CHO-K1, Membrane; note: in other assays of this panel Not Active means under 50% inhibition at 10 µM
Histamine H2 receptor, sequence (P25021 whole entry): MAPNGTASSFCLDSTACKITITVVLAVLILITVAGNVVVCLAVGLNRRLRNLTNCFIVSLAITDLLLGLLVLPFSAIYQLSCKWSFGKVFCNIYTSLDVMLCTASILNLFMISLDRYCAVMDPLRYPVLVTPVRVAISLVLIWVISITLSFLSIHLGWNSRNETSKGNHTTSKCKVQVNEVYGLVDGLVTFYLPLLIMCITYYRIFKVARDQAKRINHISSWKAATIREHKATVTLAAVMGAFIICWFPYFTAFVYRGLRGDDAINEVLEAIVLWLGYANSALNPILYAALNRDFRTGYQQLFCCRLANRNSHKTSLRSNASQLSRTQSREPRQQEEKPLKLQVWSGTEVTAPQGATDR

Melanocortin receptor 4 = Melanocortin receptor 4 (Homo sapiens, UniProt P32245); format: cell membranes, HEK293, Membrane; conditions: hek293; note: in other assays of this panel Not Active means under 50% inhibition at 10 µM
Melanocortin receptor 4, sequence (P32245 whole entry): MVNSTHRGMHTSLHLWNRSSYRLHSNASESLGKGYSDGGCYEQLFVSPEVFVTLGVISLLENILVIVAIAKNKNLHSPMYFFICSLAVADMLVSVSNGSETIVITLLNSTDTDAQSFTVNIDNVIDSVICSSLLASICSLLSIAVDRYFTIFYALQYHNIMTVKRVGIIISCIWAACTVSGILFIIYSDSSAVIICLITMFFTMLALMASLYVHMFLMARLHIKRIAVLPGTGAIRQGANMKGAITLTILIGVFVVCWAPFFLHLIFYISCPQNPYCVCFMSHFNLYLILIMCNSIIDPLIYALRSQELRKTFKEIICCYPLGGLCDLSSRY

C[C@](N)(Cc1ccc(O)c(O)c1)C(=O)O [METHYLDOPA]
IC50 [1]: Not Active | IC50 [2]: Not Active | IC50 [3]: Not Active | IC50 [4]: Not Active | IC50 [5]: Not Active | Ki [5]: Not Active | IC50 (Histamine H2 receptor; cho-k1): Not Active | IC50 (Melanocortin receptor 4): Not Active

C[C@]12CCC(=O)C=C1CC[C@@H]1[C@@H]2CC[C@@]2(C)[C@H]1CC[C@]2(C)O [METHYLTESTOSTERONE]
IC50 [1]: Not Active | IC50 [2]: Not Active | IC50 [3]: Not Active | IC50 [4]: Not Active | IC50 [5]: Not Active | Ki [5]: Not Active | IC50 (Histamine H2 receptor; cho-k1): Not Active | IC50 (Melanocortin receptor 4): Not Active

Cc1ccccc1N1C(=O)c2cc(S(N)(=O)=O)c(Cl)cc2NC1C (configuration not stated) [METOLAZONE]
IC50 [1]: Not Active | IC50 [2]: Not Active | IC50 [3]: Not Active | IC50 [4]: Not Active | IC50 [5]: Not Active | Ki [5]: Not Active | IC50 (Histamine H2 receptor; cho-k1): Not Active | IC50 (Melanocortin receptor 4): Not Active

CCn1cc(C(=O)O)c(=O)c2cc(F)c(N3CCNCC3)cc21 [NORFLOXACIN]
IC50 [1]: Not Active | IC50 [2]: Not Active | IC50 [3]: Not Active | IC50 [4]: Not Active | IC50 [5]: Not Active | Ki [5]: Not Active | IC50 (Histamine H2 receptor; cho-k1): Not Active | IC50 (Melanocortin receptor 4): Not Active

NC1=NC(=O)C(c2ccccc2)O1 (configuration not stated) [PEMOLINE]
IC50 [1]: Not Active | IC50 [2]: Not Active | IC50 [3]: Not Active | IC50 [4]: Not Active | IC50 [5]: Not Active | Ki [5]: Not Active | IC50 (Histamine H2 receptor; cho-k1): Not Active | IC50 (Melanocortin receptor 4): Not Active

Nc1nc2c(ncn2CCC(CO)CO)c(=O)[nH]1 [PENCICLOVIR]
IC50 [1]: Not Active | IC50 [2]: Not Active | IC50 [3]: Not Active | IC50 [4]: Not Active | IC50 [5]: Not Active | Ki [5]: Not Active | IC50 (Histamine H2 receptor; cho-k1): Not Active | IC50 (Melanocortin receptor 4): Not Active

C=C(C)C1(O)OC(=O)C=C1OC (configuration not stated) [PENICILLIC ACID]
IC50 [1]: Not Active | IC50 [2]: Not Active | IC50 [3]: Not Active | IC50 [4]: Not Active | IC50 [5]: Not Active | Ki [5]: Not Active | IC50 (Histamine H2 receptor; cho-k1): Not Active | IC50 (Melanocortin receptor 4): Not Active

CC1(C)S[C@@H]2[C@H](NC(=O)Cc3ccccc3)C(=O)N2[C@H]1C(=O)O [PENICILLIN G]
IC50 [1]: Not Active | IC50 [2]: Not Active | IC50 [3]: Not Active | IC50 [4]: Not Active | IC50 [5]: Not Active | Ki [5]: Not Active | IC50 (Histamine H2 receptor; cho-k1): Not Active | IC50 (Melanocortin receptor 4): Not Active

CCCN1C[C@H](CSC)C[C@@H]2c3cccc4[nH]cc(c34)C[C@H]21 [PERGOLIDE]
IC50 ([1]; read-out: IC50): 1.93 µM | Ki ([1]; read-out: Ki): 0.781 µM | IC50 [2]: Not Active | IC50 [3]: Not Active | IC50 [4]: Not Active | IC50 [5]: Not Active | Ki [5]: Not Active | IC50 (Histamine H2 receptor; cho-k1): Not Active | IC50 (Melanocortin receptor 4): Not Active

C1CCC(C(CC2CCCCN2)C2CCCCC2)CC1 (configuration not stated) [PERHEXILINE]
IC50 [1]: Not Active | IC50 [2]: Not Active | IC50 [3]: Not Active | IC50 [4]: Not Active | IC50 [5]: Not Active | Ki [5]: Not Active | IC50 (Histamine H2 receptor; cho-k1): Not Active | IC50 (Melanocortin receptor 4): Not Active

CCOc1ccc(NC(C)=O)cc1 [PHENACETIN]
IC50 [1]: Not Active | IC50 [2]: Not Active | IC50 [3]: Not Active | IC50 [4]: Not Active | IC50 [5]: Not Active | Ki [5]: Not Active | IC50 (Histamine H2 receptor; cho-k1): Not Active | IC50 (Melanocortin receptor 4): Not Active

CNNCc1ccc(C(=O)NC(C)C)cc1 [PROCARBAZINE]
IC50 [1]: Not Active | IC50 [2]: Not Active | IC50 [3]: Not Active | IC50 [4]: Not Active | IC50 [5]: Not Active | Ki [5]: Not Active | IC50 (Histamine H2 receptor; cho-k1): Not Active | IC50 (Melanocortin receptor 4): Not Active

CN(C)CCCN1c2ccccc2Sc2ccccc21 [PROMAZINE]
IC50 ([1]; read-out: IC50): 0.00924 µM | Ki ([1]; read-out: Ki): 0.00374 µM | IC50 [2]: Not Active | IC50 [3]: Not Active | IC50 [4]: Not Active | IC50 [5]: Not Active | Ki [5]: Not Active | IC50 (Histamine H2 receptor; read-out: IC50): 2.86 µM | Ki (Histamine H2 receptor; read-out: Ki): 2.81 µM | IC50 (Melanocortin receptor 4): Not Active

CC(O)CO (configuration not stated) [PROPYLENE GLYCOL]
IC50 [1]: Not Active | IC50 [2]: Not Active | IC50 [3]: Not Active | IC50 [4]: Not Active | IC50 [5]: Not Active | Ki [5]: Not Active | IC50 (Histamine H2 receptor; cho-k1): Not Active | IC50 (Melanocortin receptor 4): Not Active

CADMIUM ACETATE
IC50 [1]: Not Active | Ki [1]: Not Active | IC50 [2]: Not Active | Ki [2]: Not Active | IC50 [3]: Not Active | Ki [3]: Not Active | IC50 [4]: Not Active | Ki [4]: Not Active | IC50 [5]: Not Active | Ki [5]: Not Active | IC50 (Histamine H2 receptor; cho-k1): Not Active | Ki (Histamine H2 receptor; cho-k1): Not Active | IC50 (Melanocortin receptor 4): Not Active | Ki (Melanocortin receptor 4): Not Active

LEAD (II) ACETATE
IC50 [1]: Not Active | Ki [1]: Not Active | IC50 [2]: Not Active | Ki [2]: Not Active | IC50 [3]: Not Active | Ki [3]: Not Active | IC50 [4]: Not Active | Ki [4]: Not Active | IC50 [5]: Not Active | Ki [5]: Not Active | IC50 (Histamine H2 receptor; cho-k1): Not Active | Ki (Histamine H2 receptor; cho-k1): Not Active | IC50 (Melanocortin receptor 4): Not Active | Ki (Melanocortin receptor 4): Not Active

LIPOPOLYSACCHARIDE E. COLI O55:B5
IC50 [1]: Not Active | Ki [1]: Not Active | IC50 [2]: Not Active | Ki [2]: Not Active | IC50 [3]: Not Active | Ki [3]: Not Active | IC50 [4]: Not Active | Ki [4]: Not Active | IC50 [5]: Not Active | Ki [5]: Not Active | IC50 (Histamine H2 receptor; cho-k1): Not Active | Ki (Histamine H2 receptor; cho-k1): Not Active | IC50 (Melanocortin receptor 4): Not Active | Ki (Melanocortin receptor 4): Not Active
